US20150141411A1, “SUBSTITUTED 3,4-DIHYDRO-2H-PYRIDO[1,2-A]PYRAZINE-1,6-DIONE DERIVATIVES USEFUL FOR THE TREATMENT OF (INTER ALIA) ALZHEIMER'S DISEASE” (Janssen Pharmaceuticals, Inc., priority 2012, published 2015)

Key:
γ-secretase [1] = target: T1, γ-secretase (Homo sapiens, UniProt P49768); test: Screening for γ-secretase-modulating activity: Aβ42 in supernatant of SKNBE2 cells carrying hAPP 695 wild type (Alphalisa); format: cell-based; conditions: SKNBE2 human neuroblastoma cells carrying hAPP 695 wild type, overnight incubation, Aβ42 in cell supernatant
T1 construct: endogenous in cells; host or cells: SKNBE2 human neuroblastoma cells (carrying hAPP 695 wild type as substrate)
Experimental: (§1) Screening was carried out using SKNBE2 human neuroblastoma cells carrying the hAPP 695—wild type, grown in Dulbecco's Modified Eagle's Medium/Nutrient mixture F-12 (DMEM/NUT-mix F-12) (HAM) provided by Invitrogen (cat no. 10371-029) containing 5% Serum/Fe supplemented with 1% non-essential amino acids, 1-glutamine 2 mM, Hepes 15 mM, penicillin 50 U/ml (units/ml) en streptomycin 50 μg/ml. Cells were grown to near confluency.
(§2) The screening was performed using a modification of the assay as described in Citron et al (1997) Nature Medicine 3: 67. Briefly, cells were plated in a 384-well plate at 10^4 cells/well in Ultraculture (Lonza, BE12-725F) supplemented with 1% glutamine (Invitrogen, 25030-024), 1% non-essential amino acid (NEAA), penicillin 50 U/ml en streptomycin 50 μg/ml in the presence of test compound at different test concentrations. The cell/compound mixture was incubated overnight at 37° C., 5% CO2. The next day the media were assayed by two sandwich immuno-assays, for Aβ42 and Aβ total.
(§3) Aβtotal and Aβ42 concentrations were quantified in the cell supernatant using the Aphalisa technology (Perkin Elmer). Alphalisa is a sandwich assay using biotinylated antibody attached to streptavidin coated donorbeads and antibody conjugated to acceptor beads. In the presence of antigen, the beads come into close proximity. The excitation of the donor beads provokes the release of singlet oxygen molecules that trigger a cascade of energy transfer in the acceptor beads, resulting in light emission. To quantify the amount of Aβ42 in the cell supernatant, monoclonal antibody specific to the C-terminus of Aβ42 (JRF/cAβ42/26) was coupled to the receptor beads and biotinylated antibody specific to the N-terminus of Aβ (JRF/AβN/25) was used to react with the donor beads. To quantify the amount of Aβtotal in the cell supernatant, monoclonal antibody specific to the N-terminus of Aβ (JRF/AβN/25) was coupled to the receptor beads and biotinylated antibody specific to the mid region of Aβ (biotinylated 4G8) was used to react with the donor beads.
(§4) To obtain the values reported in Table 3, the data are calculated as percentage of the maximum amount of amyloid Beta 42 measured in the absence of the test compound. The sigmoidal dose response curves were analyzed using non-linear regression analysis with percentage of the control plotted against the log concentration of the compound. A 4-parameter equation was used to determine the IC50.

γ-secretase [2] = target: T1, γ-secretase; test: Screening for γ-secretase-modulating activity: Aβtotal in supernatant of SKNBE2 cells carrying hAPP 695 wild type (Alphalisa); format: cell-based; conditions: SKNBE2 human neuroblastoma cells carrying hAPP 695 wild type, overnight incubation, Aβtotal in cell supernatant
Experimental: as §1, §2, §3, §4

Row | IC50 (γ-secretase [1]) | IC50 (γ-secretase [2]) | SMILES
1 | 50 nM | > 10000 nM | Cc1cn(-c2ccc3n(c2=O)C[C@@H](C)N(C(C)c2cc(C(F)(F)F)cc(C(F)(F)F)c2)C3=O)cn1 (mixture of isomers) [compound 154]
2 | 220 nM | > 10000 nM | Cc1cn(-c2ccc3n(c2=O)CCN(C(C)c2cccc(Cl)c2Cl)C3=O)cn1 (racemic) [compound 10]
3 | 980 nM | > 10000 nM | Cc1cn(-c2ccc3n(c2=O)CCN(C(c2ccccc2)c2cc(C(F)(F)F)cc(C(F)(F)F)c2)C3=O)cn1 (racemic) [compound 52]
4 | 1780 nM | > 10000 nM | Cc1cn(-c2ccc3n(c2=O)C(C)C(C)N(Cc2cc(C(F)(F)F)cc(C(F)(F)F)c2)C3=O)cn1 (single isomer, unassigned) [14a]
5 | 650 nM | > 10000 nM | Cc1cn(-c2ccc3n(c2=O)C(C)C(C)N(Cc2cc(C(F)(F)F)cc(C(F)(F)F)c2)C3=O)cn1 (single isomer, unassigned) [14b]
6 | 20 nM | > 10000 nM | Cc1cn(-c2ccc3n(c2=O)C[C@@H](C)N(C(C)c2cc(CC4CC4)cc(C(F)(F)F)c2)C3=O)cn1 (single isomer, unassigned) [compound 135]
7 | 40 nM | > 10000 nM | Cc1cn(-c2ccc3n(c2=O)C[C@@H](C)N(C(C)c2cc(CC4CC4)cc(C(F)(F)F)c2)C3=O)cn1 (single isomer, unassigned) [compound 136]
8 | 210 nM | > 10000 nM | CCC(c1cc(OC)cc(C(F)(F)F)c1)N1C(=O)c2ccc(-n3cnc(C)c3)c(=O)n2C[C@H]1C (single isomer, unassigned) [compound 142]
9 | 130 nM | > 10000 nM | CCOc1cc(C(C)N2C(=O)c3ccc(-n4cnc(C)c4)c(=O)n3C[C@H]2C)cc(C(F)(F)F)c1 (single isomer, unassigned) [compound 144]
10 | 150 nM | > 10000 nM | Cc1cn(-c2ccc3n(c2=O)C[C@@H](C)N(C(C)c2cccc(OC(F)(F)F)c2)C3=O)cn1 (single isomer, unassigned) [compound 146]
11 | 330 nM | > 10000 nM | Cc1cn(-c2ccc3n(c2=O)C[C@@H](C)N(C(C)c2cccc(OC(F)(F)F)c2)C3=O)cn1 (single isomer, unassigned) [compound 147]
12 | 140 nM | > 10000 nM | COc1cc(C(C)N2C(=O)c3ccc(-n4cnc(C)c4)c(=O)n3C[C@H]2C)cc(C(F)(F)F)c1 (single isomer, unassigned) [compound 148]
13 | 300 nM | > 10000 nM | COc1cc(C(C)N2C(=O)c3ccc(-n4cnc(C)c4)c(=O)n3C[C@H]2C)cc(C(F)(F)F)c1 (single isomer, unassigned) [compound 149]
14 | 650 nM | 9120 nM | Cc1cn(-c2ccc3n(c2=O)CCN(C(C)c2c[nH]c4cc(F)c(Cl)cc24)C3=O)cn1 (single isomer, unassigned) [compound 184]
15 | 190 nM | 6920 nM | Cc1cn(-c2ccc3n(c2=O)CC(C)N(C(C)c2c[nH]c4cc(F)c(Cl)cc24)C3=O)cn1 (single isomer, unassigned) [compound 187]
16 | 10 nM | 4570 nM | Cc1cn(-c2ccc3n(c2=O)CC(C)N(C(C)c2c[nH]c4cc(F)c(Cl)cc24)C3=O)cn1 (single isomer, unassigned) [compound 188]
17 | 200 nM | > 10000 nM | CCn1cc(C(C)N2C(=O)c3ccc(-n4cnc(C)c4)c(=O)n3CC2C)c2cc(Cl)c(F)cc21 (single isomer, unassigned) [compound 191]
18 | 200 nM | > 10000 nM | Cc1cn(-c2ccc3n(c2=O)CC(C)N(C(C)c2cn(C(C)C)c4cc(F)c(Cl)cc24)C3=O)cn1 (single isomer, unassigned) [compound 193]
19 | > 10000 nM | > 10000 nM | Cc1cn(-c2ccc3n(c2=O)CC(C)N(C2Cc4ccccc4C2)C3=O)cn1 (single isomer, unassigned) [compound 206]
20 | 380 nM | > 10000 nM | Cc1cn(-c2ccc3n(c2=O)CCN(C(C)c2cc(Cl)cc(Cl)c2)C3=O)cn1 (single isomer, unassigned) [compound 209]
